Where two headings read alike, the source gives them in different places.
Key:
[1] = tested on: plasma LPA 18:1 and LPA 18:2; assay: Human plasma ex vivo assay (LPA 18:1 / 18:2 by LC-MS/MS); type: biochemical; conditions: 37° C., 2 hours
Experimental: The collected plasma was centrifuged at 4000 rpm for 15 minutes at 4° C. The supernatant was aliquoted into a 96-well plate (25 μL per well), sealed, and frozen at −80° C. for further use.
LPA 17:0 powder was dissolved in a mixed solution of water: isopropanol: formic acid (1:1:1) to a final concentration of […]. The mixture was aliquoted and frozen at −20° C.
1 volume of formic acid was added to 1000× methanol, mixed well, and stored at 4° C. a) The 96-well plate containing frozen plasma was removed from the −80° C. freezer and thawed on ice at room temperature. b) 6 μL of 50× LPA 17:0 (internal standard) and 264 μL of 0.1% FA were added to a clean well of the 96-well plate; the final concentration of LPA 17:0 (internal standard) was 50 nM. c) 6× compound was 1:3 serially diluted to a total of 8 concentrations, and 5 μL of the compound per well was added to the 96-well plate containing plasma. The maximum final concentration of the compound was 10 μM, and the final concentration of DMSO was 0.1%. The plate was centrifuged at 300 rpm for 30 seconds. The DMSO control sample reacted for 0 hours was used as the minimum value (Min), and the DMSO control sample reacted for 2 hours was used as the maximum value (Max). […]
d) The DMSO sample reacted for 0 hours was rapidly transferred to 0.1% FA solution containing the internal standard in step b) to terminate the reaction and precipitate plasma proteins. e) The 96-well plate containing plasma and compounds was rapidly incubated in a 37° C. incubator for 2 hours. After the incubation, 6 μL of 10× LPA 17:0 and 264 μL of 0.1% FA were added to each well to terminate the reaction and precipitate plasma proteins. […]
f) All the samples were mixed well with a pipette, and centrifuged at 4000 rpm for 10 minutes at 4° C. 150 μL of the supernatant was added to a 96-well U-bottom plate (Thermo 267245), sealed with silica gel, and then loaded. The contents of LPA 18:1 and LPA 18:2 in the samples were detected by LC-MS/MS system.
LPA 18:1(or 18:2) relative content=LPA 18:1(or 18:2) peak area/LPA 17:0 peak area Percentage reduction (%) in plasma LPA18:1(or 18:2)=(Max−X)/(Max−Min)*100 Max: LPA 18:1 (or 18:2) relative content of the DMSO sample reacted for 2 hours Min: LPA 18:1 (or 18:2) relative content of the DMSO sample reacted for 0 hours X: LPA 18:1 (or 18:2) relative content of the sample after compound treatment for 2 hours The IC50 of the compounds was calculated by fitting a nonlinear regression through percentage reduction in plasma LPA 18:1 (or 18:2) and log value of compound concentration using the software GraphPad Prism 8.
Y=Bottom+(Top−Bottom)/(1+10^((Log IC50−X)*Hill Slope))

ATX = ATX (Homo sapiens (Human), UniProt Q13822); assay: ATX enzyme inhibition assay (Amplex UltraRed/choline oxidase/HRP, 16:0 Lyso PC substrate); type: biochemical
Experimental: All compounds were prepared as a 10 mM DMSO stock solution.
Solutions at pH 8.5 and pH 7.5 were prepared respectively with the following formulations:
All compounds, including the positive control compound, were diluted 5-fold from 10 mM to 2 mM with DMSO in the first step. The mixture was then diluted to 100 μM with 1× assay buffer.
3. Separate Detection of Compounds with 1× Assay Buffer at Two pH Values:
a) 5 μL of 10× compound diluent was added to a 384-well plate (Greiner 781209) using a motorized pipette (see the “experimental preparation” step). 5 μL of 1× assay buffer containing 5% DMSO was added to both negative and positive control wells. The plate was centrifuged at 300 rpm for 1 minute at room temperature.
b) 2× ATX ([…]) was prepared with 1× assay buffer, and 25 μL of 2× ATX was added to the plate using a motorized pipette. 25 μL of 1× assay buffer was added to the negative control wells and 25 μL of 2× ATX was added to the positive control wells. The plate was centrifuged at 300 rpm for 1 minute at room temperature.
The plate was incubated at room temperature for 10 minutes.
c) 2.5× working solution containing Amplex UltraRed reagent (125 μM), HRP (2.5 U/mL), choline oxidase (1.25 U/mL), and 16:0 Lyso PC (75 μM) was prepared with 1× assay buffer. 20 μL of 2.5× working solution was added to all reaction wells using a motorized pipette. The plate was centrifuged at 300 rpm for 1 minute at room temperature.
d) The plate was detected by SpectraMax with the following procedures: fluorescence mode; excitation at 550 nm; emission at 590 nm; kinetics; read once every 2 minutes; read continuously for 60 minutes.
The calculation formula of % inhibition (i.e., % inhibition rate) was as follows: […]
V0: X-axis is taken as 0 to 30 minutes, Y-axis is taken as fluorescence readings, and the slope corresponding to the straight line fitted by the software GraphPad Prism 8 is the initial response rate.
V0max: Average V0 of the positive control wells in the plate.
V0min: Average V0 of the negative control wells in the plate.
The IC50 of the compounds was calculated from a nonlinear regression line (dose-initial response rate) fitted by % inhibition and log value of compound concentration using the software GrahPad Prism 8.

[2] = LPA 18:1, read-out: Human plasma ex vivo assay IC50 (18:1 LPA)
[3] = LPA 18:2, read-out: Human plasma ex vivo assay IC50 (18:2 LPA)
[4] = assay buffer pH 7.5, read-out: IC50 (nM) pH 7.5
[5] = assay buffer pH 8.5, read-out: IC50 (nM) pH 8.5

| Compound | IC50 [1, 2] [µM] | IC50 [1, 3] [µM] | IC50 (ATX; [4]) [nM] | IC50 (ATX; [5]) [nM] |
| --- | --- | --- | --- | --- |
| CN(c1nc(-c2ccc(F)cc2)c(C#N)s1)c1c2c(nc3c(F)cc(N4CCN(CC(=O)N5CC(F)C5)CC4)cc13)CCC2 [Example A16] | 0.286 | 0.341 | 282 | 75.7 |
| C[C@H]1CN(c2cc(F)c3nc4c(c(N(C)c5nc(-c6ccc(F)cc6)c(C#N)s5)c3c2)CC[C@@H]4O)CCN1CC(=O)N1CC(O)C1 (single isomer, unassigned) [Example E8-a] | 0.28 | 0.324 | – | 22.5 |
| CN(c1nc(-c2ccc(F)cc2)c(C#N)s1)c1c2c(nc3c(F)cc(N4CC5(CN(CC(=O)N6CC(O)C6)C5)C4)cc13)COC2 [Example A24] | 0.466 | 0.486 | – | 181 |
| CN(c1nc(-c2ccc(F)cc2)c(C#N)s1)c1c2c(nc3c(F)cc(N4CCN(CC(=O)N5CC(C)(O)C5)CC4)cc13)[C@H](O)CC2 (single isomer, unassigned) [Example E10-b] | 0.263 | 0.261 | – | 14.4 |
| CN(c1nc(-c2ccc(F)cc2)c(C#N)s1)c1c2c(nc3ccc(N4CCN(CC(=O)N5CC(O)C5)CC4)nc13)CCC2 [Example A10] | 0.192 | 0.157 | 559 | 60.7 |
| CN(c1nc(-c2ccc(F)cc2)c(C#N)s1)c1c2c(nc3c(F)cc(N4CC5(CN(C(=O)C6CCOCC6)C5)C4)cc13)C(O)CC2 (centres unmarked) [Example E14] | 0.281 | 0.651 | – | 17.3 |
| CN(c1nc(-c2ccc(F)cc2)c(C#N)s1)c1c2c(nc3c(F)cc(N4CCN(CC(=O)N5CC(O)C5)CC4)cc13)COC2 [Example A19] | 0.118 | 0.132 | 413 | 52.7 |
| CN(c1nc(-c2ccc(F)cc2)c(C#N)s1)c1c2c(nc3ccc(N4CCN(CC(=O)N5CC(O)C5)CC4)cc13)CCO2 [Example A3] | 0.109 | 0.103 | 214 | 27.8 |
| CN(c1nc(-c2ccc(F)cc2)c(C#N)s1)c1c2c(nc3c(F)cc(N4CC5(CN(C(=O)C(C)(C)O)C5)C4)cc13)C(O)CC2 (centres unmarked) [Example E16] | 0.41 | 0.435 | – | 16.8 |
| CN(c1nc(-c2ccc(F)cc2)c(C#N)s1)c1c2c(nc3c(F)cc(N4CC5(CN(C(=O)C6(O)CCOCC6)C5)C4)cc13)C(O)CC2 (centres unmarked) [Example E15] | 0.266 | 0.271 | – | 13.3 |
| CN1CC[C@H](C(=O)N2CC3(C2)CN(c2cc(F)c4nc5c(c(N(C)c6nc(-c7ccc(F)cc7)c(C#N)s6)c4c2)CCC5O)C3)C1 (some centres unmarked) [Example E18] | 0.25 | 0.26 | – | 21.4 |
| CN(c1nc(-c2ccc(F)cc2)c(C#N)s1)c1c2c(nc3c(F)cc(N4CC5(CCN(CC(=O)N6CC(O)C6)CC5)C4)cc13)CCC2 [Example A11] | 0.299 | 0.359 | 1180 | 145 |
| CN(c1nc(-c2ccc(F)cc2)c(C#N)s1)c1c2c(nc3c(F)cc(N4CC5(CN(C(=O)[C@]6(O)CCOC6)C5)C4)cc13)[C@H](O)CC2 (single isomer, unassigned) [Example E19-1a] | 0.207 | 0.361 | – | 22.9 |

More lines, in order of falling IC50 [1, 2], values ahead:

| IC50 [1, 2] [µM] | IC50 [1, 3] [µM] | IC50 (ATX; [4]) [nM] | IC50 (ATX; [5]) [nM] | Compound |
| --- | --- | --- | --- | --- |
| 0.384 | 0.43 | – | 17.9 | CN(c1nc(-c2ccc(F)cc2)c(C#N)s1)c1c2c(nc3c(F)cc(N4CCN(CC(=O)N5CC(C)(O)C5)CC4)cc13)[C@@H](O)CC2 (single isomer, unassigned) [Example E10-a] |
| 0.354 | 0.401 | 1140 | 193 | CN(c1nc(-c2ccc(F)cc2)c(C#N)s1)c1c2c(nc3c(F)cc(N4CCN(C(=O)[C@H]5CCOC5)CC4)cc13)CCC2 [Example C7] |
| 0.292 | 0.347 | 82.2 | 52.6 | CN(c1nc(-c2ccc(F)cc2)c(C#N)s1)c1c2c(nc3c(F)cc(N4CC5(CN(C(=O)[C@H]6CCOC6)C5)C4)cc13)CCO2 [Example C12] |
| 0.232 | 0.264 | 1230 | 196 | CN(c1nc(-c2ccc(F)cc2)c(C#N)s1)c1c2c(nc3c(F)cc(N4CCN(C(=O)[C@@H]5CCOC5)CC4)cc13)CCC2 [Example C6] |
| 0.2 | 0.239 | 112 | 32.8 | CN(c1nc(-c2ccc(F)cc2)c(C#N)s1)c1c2c(nc3c(F)cc(N4CCN(CC(=O)N5CC(CO)C5)CC4)cc13)CCC2 [Example A5] |
| 0.183 | 0.196 | 138 | 27.7 | CN(c1nc(-c2ccc(F)cc2)c(C#N)s1)c1c2c(nc3ccc(N4CCN(CC(=O)N5CC(O)C5)CC4)cc13)CCC2 [Example A1] |
| 0.176 | 0.169 | – | 112 | CN(c1nc(-c2ccc(F)cc2)c(C#N)s1)c1c2c(nc3ccc(N4CCN(S(C)(=O)=O)C[C@@H]4CO)cc13)CCC2 [Example B1] |
| 0.175 | 0.16 | – | 15.4 | C[C@H]1CN(c2cc(F)c3nc4c(c(N(C)c5nc(-c6ccc(F)cc6)c(C#N)s5)c3c2)CCC4O)CCN1CC(=O)N1CC(O)C1 (some centres unmarked) [Example E8] |
| 0.17 | 0.203 | 645 | 84 | CN(c1nc(-c2ccc(F)cc2)c(C#N)s1)c1c2c(nc3cnc(N4CCN(CC(=O)N5CC(O)C5)CC4)cc13)CCC2 [Example A20] |
| 0.164 | 0.172 | – | 48.7 | CN(c1nc(-c2ccc(F)cc2)c(C#N)s1)c1c2c(nc3c(F)cc(N4CC5(CN(CC(=O)N6CC(O)C6)C5)C4)cc13)CC2 [Example A17] |
| 0.16 | 0.176 | 174 | 52.1 | CN(c1nc(-c2ccc(F)cc2)c(C#N)s1)c1c2c(nc3c(F)cc(N4CCN(CC(=O)N5CC(O)C5)CC4)cc13)CCC2 [Example A4] |
| 0.0742 | 0.0727 | 85.1 | 22.2 | CN(c1nc(-c2ccc(F)cc2)c(C#N)s1)c1c2c(nc3ccc(N4CCN(CC(=O)N5CC(O)C5)CC4)cc13)CC2 [Example A7] |
| 0.0702 | 0.0559 | 125 | 23.7 | CN(c1nc(-c2ccc(F)cc2)c(C#N)s1)c1c2c(nc3ncc(N4CCN(CC(=O)N5CC(O)C5)CC4)cc13)CCC2 [Example A21] |

Source: US20250051321A1, “TRICYCLIC DERIVATIVE AND PREPARATION METHOD THEREFOR AND APPLICATION THEREOF” (SHANGHAI JEMINCARE PHARMACEUTICAL CO., LTD., priority 2021, published 2025)
